Seven molecules from BindingDB's records for doi:10.1021/jm050820s (Schering-Plough Research Institute, 2006) can be followed below.

Usually Ki stands for the equilibrium dissociation constant of an inhibitor or competing ligand from its target. A lower Ki goes with tighter binding.

The target of the first assay is Genome polyprotein (Hepatitis C virus genotype 1a (isolate H77), UniProt P27958). Briefly: Continuous Spectrophotometric Assay.
Genome polyprotein, sequence (P27958 1027-1657 limits assumed): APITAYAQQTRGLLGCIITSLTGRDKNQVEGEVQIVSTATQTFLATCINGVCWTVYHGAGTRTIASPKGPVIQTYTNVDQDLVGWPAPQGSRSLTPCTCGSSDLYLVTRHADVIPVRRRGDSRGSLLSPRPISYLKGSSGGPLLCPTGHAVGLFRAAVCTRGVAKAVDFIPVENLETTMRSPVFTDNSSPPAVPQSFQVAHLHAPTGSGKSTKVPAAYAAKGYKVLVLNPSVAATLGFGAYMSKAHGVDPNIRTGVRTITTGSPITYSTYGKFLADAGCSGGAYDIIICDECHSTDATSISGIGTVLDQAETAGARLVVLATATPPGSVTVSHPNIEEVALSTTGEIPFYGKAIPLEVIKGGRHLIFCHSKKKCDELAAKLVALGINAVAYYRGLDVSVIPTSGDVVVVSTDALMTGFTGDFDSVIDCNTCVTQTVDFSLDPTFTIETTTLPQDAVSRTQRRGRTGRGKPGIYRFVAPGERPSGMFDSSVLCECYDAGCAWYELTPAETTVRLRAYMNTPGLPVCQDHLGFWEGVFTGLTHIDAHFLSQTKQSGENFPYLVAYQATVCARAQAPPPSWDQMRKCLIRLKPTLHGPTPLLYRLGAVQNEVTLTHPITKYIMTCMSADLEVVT
Settings: not given
The procedure: Proteolytic cleavage of the ester linkage between the Nva (L-norvaline) and the chromophore (PAP) was monitored for change in absorbance at 370 nm. Initial velocities were determined using linear regression and kinetic constants were obtained by fitting the data to the Michaelis-Menten equation.
The molecule `CCCC(NC(=O)[C@@H]1C[C@@H]2CN1C(=O)[C@H](C1CCCCC1)NC(=O)Cc1cccc(c1)OCCCN2S(=O)(=O)c1ccccc1)C(=O)C(=O)NCC(=O)N[C@H](C(=O)N(C)C)c1ccccc1` (stereo partly drawn) [3-{[(7R,9S,12S)-6-(benzenesulfonyl)-12-cyclohexyl-11,14-dioxo-2-oxa-6,10,13-triazatricyclo[14.3.1.1^{7,10}]henicosa-1(20),16,18-trien-9-yl]formamido}-N-({[(S)-(dimethylcarbamoyl)(phenyl)methyl]carbamoyl}methyl)-2-oxohexanamide] had an inhibition constant (Ki) of 36 nM.
Same read-out and setting: to `CCCC(NC(=O)[C@@H]1C[C@@H]2CN1C(=O)[C@H](C1CCCCC1)NC(=O)Cc1cccc(c1)OCCCS2(=O)=O)C(=O)C(=O)NCC(=O)N[C@H](C(=O)N(C)C)c1ccccc1` (stereo partly drawn) [(2S)-({N-[3-({[(7R,9S,12S)-12-cyclohexyl-6,6-dioxido-11,14-dioxo-2-oxa-6-thia-10,13-diazatricyclo[14.3.1.17,10]henicosa-1(20),16,18-trien-9-yl]carbonyl}amino)-2-oxohexanoyl]glycyl}amino)(phenyl)acetic acid N,N-dimethyl amide] belongs 3300 nM.

Still in this assay, the particulars now being: pH 6.5; 30 °C.
Molecule `CCCC(NC(=O)[C@@H]1C[C@@H]2CN1C(=O)[C@H](C1CCCCC1)NC(=O)Cc1cccc(c1)OCCCCO2)C(=O)C(=O)NCC(=O)N[C@H](C(=O)N(C)C)c1ccccc1` (stereo partly drawn) [3-{[(5S,8S,10R)-5-cyclohexyl-3,6-dioxo-11,16-dioxa-4,7-diazatricyclo[15.3.1.1^{7,10}]docosa-1(20),17(21),18-trien-8-yl]formamido}-N-({[(S)-(dimethylcarbamoyl)(phenyl)methyl]carbamoyl}methyl)-2-oxohexanamide] gave a Ki of 7 nM.
Still for that read-out and setting: the result for `CCCC(NC(=O)[C@@H]1C[C@@H]2CN1C(=O)[C@H](C1CCCCC1)NC(=O)Cc1cccc(c1)OCCO2)C(=O)C(=O)NCC(=O)N[C@H](C(=O)N(C)C)c1ccccc1` (stereo partly drawn) [3-{[(6R,8S,11S)-11-cyclohexyl-10,13-dioxo-2,5-dioxa-9,12-diazatricyclo[13.3.1.1^{6,9}]icosa-1(19),15,17-trien-8-yl]formamido}-N-({[(S)-(dimethylcarbamoyl)(phenyl)methyl]carbamoyl}methyl)-2-oxohexanamide] reads 30 nM; that for `CCCC(NC(=O)[C@@H]1C[C@@H]2CN1C(=O)[C@H](C1CCCCC1)NC(=O)Cc1cccc(c1)OCCCS2)C(=O)C(=O)NCC(=O)N[C@H](C(=O)N(C)C)c1ccccc1` (stereo partly drawn) [(2S)-({N-[3-({[(7R,9S,12S)-12-cyclohexyl-11,14-dioxo-2-oxa-6-thia-10,13-diazatricyclo[14.3.1.17,10]henicosa-1(20),16,18-trien-9-yl]carbonyl}amino)-2-oxohexanoyl]glycyl}amino)(phenyl)acetic acid N,N-dimethyl amide], 10 nM; that for `CCC[C@H](NC(=O)[C@@H]1C[C@@H]2CN1C(=O)[C@H](C(C)(C)C)NC(=O)Cc1cccc(c1)OCCCO2)C(=O)C(=O)NCC(=O)N[C@H](C(=O)N(C)C)c1ccccc1` [(2S)-({N-[(3S)-3-({[(7R,9S,12S)-12-tert-butyl-11,14-dioxo-2,6-dioxa-10,13-diazatricyclo[14.3.1.17,10]henicosa-1(20),16,18-trien-9-yl]carbonyl}amino)-2-oxohexanoyl]glycyl}amino)(phenyl)acetic acid N,N-dimethyl amide], 15 nM.
The same measure, in the same setting: the result for `CCC[C@H](NC(=O)[C@@H]1C[C@H]2CN1C(=O)[C@H](C(C)(C)C)NC(=O)Cc1cccc(c1)OCCCO2)C(=O)C(=O)NCC(=O)N[C@H](C(=O)N(C)C)c1ccccc1` [(2S)-({N-[(3S)-3-({[(7S,9S,12S)-12-tert-butyl-11,14-dioxo-2,6-dioxa-10,13-diazatricyclo[14.3.1.17,10]henicosa-1(20),16,18-trien-9-yl]carbonyl}amino)-2-oxohexanoyl]glycyl}amino)(phenyl)acetic acid N,N-dimethyl amide] reads 130 nM.
